Source: ChEMBL document CHEMBL4513139, “CO-ADD screening of University of Strathclyde (UK) compounds”
In brackets after ≈: the same amount, converted by molar mass.

Legend:
Escherichia coli = test: microbe, parasite or virus in culture; details: ATCC 25922, 18 h, ASSAY_TEST Inhibition of Bacterial Growth, detection method Absorption (OD600), MEDIA CAMHB, plate type 384well, NBS, CORNING #3640
Description: Antibacterial activity against Escherichia coli ATCC 25922 (CO-ADD:GN_001); MIC in CAMBH media using NBS plates, by OD(600)

Staphylococcus aureus = test: microbe, parasite or virus in culture; details: ATCC 43300, 18 h, ASSAY_TEST Inhibition of Bacterial Growth, detection method Absorption (OD600), MEDIA CAMHB, plate type 384well, NBS, CORNING #3640
Description: Antibacterial activity against Staphylococcus aureus MRSA ATCC 43300 (CO-ADD:GP_020); MIC in CAMBH media, using NBS plates, by OD(600)

Pseudomonas aeruginosa = test: microbe, parasite or virus in culture; details: ATCC 27853, 18 h, ASSAY_TEST Inhibition of Bacterial Growth, detection method Absorption (OD600), MEDIA CAMHB, plate type 384well, NBS, CORNING #3640
Description: Antibacterial activity against Pseudomonas aeruginosa ATCC 27853 (CO-ADD:GN_042); MIC in CAMBH media using NBS plates, by OD(600)

HEK293 = test: cells; assay type: functional, Homo sapiens, ATCC CRL1573; details: Homo sapiens, ATCC CRL1573, HEK293; ASSAY_TEST Inhibition of Cell Viability; detection method Resazurin; Fluorescence (ex560/em590); MEDIA DMEM with 10% FBS; plate type 384well; TC; CORNING #3712; time 18 hr; read-out: CC50
Klebsiella pneumoniae = test: microbe, parasite or virus in culture; details: ATCC 700603, 18 h, ASSAY_TEST Inhibition of Bacterial Growth, detection method Absorption (OD600), MEDIA CAMHB, plate type 384well, NBS, CORNING #3640
Description: Antibacterial activity against Klebsiella pneumoniae MDR ATCC 70063 (CO-ADD:GN_003); MIC in CAMBH media using NBS plates, by OD(600)

Candida albicans = test: microbe, parasite or virus in culture; details: ATCC 90028, ASSAY_TEST Inhibition of Fungal Growth, detection method Absorption (OD530), plate type 384well, NBS, CORNING #3640
Description: Antifungal activity against Candida albicans ATCC 90028 (CO-ADD:FG_001); MIC in YNB media using NBS plates, by OD630

Acinetobacter baumannii = test: microbe, parasite or virus in culture; details: ATCC 19606, 18 h, ASSAY_TEST Inhibition of Bacterial Growth, detection method Absorption (OD600), MEDIA CAMHB, plate type 384well, NBS, CORNING #3640
Description: Antibacterial activity against Acinetobacter baumannii ATCC 19606 (CO-ADD:GN_034); MIC in CAMBH media using NBS plates, by OD600

Description for Cryptococcus neoformans: Antifungal activity against Cryptococcus neoformans H99 ATCC 208821 (CO-ADD:FG_002); MIC in YNB media using NBS plates, by Resazurin OD(600-570)

| MIC (Cryptococcus neoformans) | MIC (Escherichia coli) | MIC (Staphylococcus aureus) | MIC (Pseudomonas aeruginosa) | MIC (Klebsiella pneumoniae) | MIC (Candida albicans) | MIC (Acinetobacter baumannii) | SMILES | CC50 (HEK293) [µg/mL] |
| --- | --- | --- | --- | --- | --- | --- | --- | --- |
| > 32 µM | > 32 µM | > 32 µM | > 32 µM | > 32 µM | > 32 µM | > 32 µM | Cn1cc(NC(=O)c2cc(NC=O)cn2C)cc1C(=O)NCCC(=N)N.O=C(O)C(F)(F)F | > 32 |
| 2 µg/mL | 32 µg/mL | 2 µg/mL | > 32 µg/mL | > 32 µg/mL | > 32 µg/mL | > 32 µg/mL | COc1cccc(C(=N)Nc2cc(C(=O)Nc3cc(C(=O)Nc4nc(C(=O)NCCCN(C)C)c(CCC(C)C)s4)n(C)c3)n(C)c2)c1.O=C(O)C(F)(F)F.O=C(O)C(F)(F)F | > 32 |
| > 32 µg/mL | > 32 µg/mL | > 32 µg/mL | > 32 µg/mL | > 32 µg/mL | > 32 µg/mL | > 32 µg/mL | CC(C)n1cc(NC(=O)c2cc(NC=O)cn2C)cc1C(=O)Nc1cc(C(=O)NCCCN(C)C)n(C)c1.O=C(O)C(F)(F)F | > 32 |
| 16 µg/mL | > 32 µg/mL | ≤ 0.25 µg/mL | > 32 µg/mL | > 32 µg/mL | 32 µg/mL | > 32 µg/mL | COC1CCN(CCNC(=O)c2cc(NC(=O)c3cc(NC(=O)c4ccc(/C=C/c5cnc6ccccc6c5)cc4)cn3C)cn2C)CC1 | 2.89 (≈ 4.38 µM) |
| 1 µg/mL | > 32 µg/mL | 16 µg/mL | > 32 µg/mL | > 32 µg/mL | > 32 µg/mL | > 32 µg/mL | COc1ccc(C(=N)Nc2cc(C(=O)Nc3nc(C(=O)NCCN4CCOCC4)c(CCc4ccccc4)s3)n(C)c2)cc1 | 7.47 (≈ 12.1 µM) |
| > 32 µM | > 32 µM | > 32 µM | > 32 µM | > 32 µM | > 32 µM | > 32 µM | Cn1cc(NC(=O)c2cc(NC(=N)c3ccccc3)cn2C)cc1C(=O)NCCC(=N)N.O=C(O)C(F)(F)F.O=C(O)C(F)(F)F | > 32 |
| 4 µg/mL | > 32 µg/mL | 4 µg/mL | > 32 µg/mL | > 32 µg/mL | 4 µg/mL | > 32 µg/mL | Cn1cc(NC(=O)c2cc(NC(=O)c3ccc(/C=C/c4ccc5ccccc5n4)cc3)cn2C)cc1C(=O)NCCN1CCOCC1.O=C(O)C(F)(F)F | 1.95 |
| > 32 µg/mL | > 32 µg/mL | 16 µg/mL | > 32 µg/mL | > 32 µg/mL | > 32 µg/mL | > 32 µg/mL | COc1cccc(/C=C/c2ccc(C(=O)Nc3cc(C(=O)Nc4cc(C(=O)NCCN5CCC(O)CC5)n(C)c4)n(C)c3)cc2)c1.O=C(O)C(F)(F)F | 11.7 |
| 2 µg/mL | > 32 µg/mL | ≤ 0.25 µg/mL | > 32 µg/mL | > 32 µg/mL | 2 µg/mL | > 32 µg/mL | COC1CCN(CCNC(=O)c2cc(NC(=O)c3cc(NC(=O)c4ccc(/C=C/c5ccc(N(C)C)cc5)nc4)cn3C)cn2C)CC1.O=C(O)C(F)(F)F.O=C(O)C(F)(F)F | 1.28 |
| > 32 µg/mL | > 32 µg/mL | > 32 µg/mL | > 32 µg/mL | > 32 µg/mL | > 32 µg/mL | > 32 µg/mL | Cn1cc(NC(=O)c2cc(NC(=O)C(C)(C)C)cn2C)cc1C(=O)NCCC(=N)N.O=C(O)C(F)(F)F | 12.3 |
| > 32 µg/mL | > 32 µg/mL | > 32 µg/mL | > 32 µg/mL | > 32 µg/mL | > 32 µg/mL | > 32 µg/mL | Cn1cc(NC(=O)c2cc(NC(=N)c3cnc4ccccc4c3)cn2C)cc1C(=O)NCCC(=N)N.O=C(O)C(F)(F)F.O=C(O)C(F)(F)F.O=C(O)C(F)(F)F | > 32 |
| 8 µg/mL | 32 µg/mL | 32 µg/mL | > 32 µg/mL | > 32 µg/mL | > 32 µg/mL | > 32 µg/mL | CC(C)CCn1cc(NC(=O)c2cc(NC(=O)c3cc(NC(=N)c4cnc5ccccc5c4)cn3C)cn2C)cc1C(=O)NCCCN(C)C.O=C(O)C(F)(F)F.O=C(O)C(F)(F)F | 11.6 |
